# Assay results reported in paper PMC5607274, “An iterative compound screening contest method for identifying target protein inhibitors using the tyrosine-protein kinase Yes” (Scientific Reports, 2017).
# Biological target: T1, human recombinant Yes [a.a. 2–543 (end)] (Homo sapiens, UniProt P07947)
# T1 construct: human recombinant Yes [a.a; 2–543 (end)]; purchased BPS Bioscience 40488
# Test: ADP-Glo kinase assay, inhibition rates of Yes phosphorylation activity (first and second screening)
# Assay type: biochemical
# Details: first screening; mean of n = 4 wells; 10 μmol L−1 compound
# Outline: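 ADP-Glo luminescence measured inhibition of human recombinant Yes (a.a. 2–543) phosphorylation activity. In the first screen, each compound ran in 4 wells and inhibition rates were averaged. The second screen retested hits as compounds dissolved from fresh powder.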
# T1 sequence (P07947 2-543): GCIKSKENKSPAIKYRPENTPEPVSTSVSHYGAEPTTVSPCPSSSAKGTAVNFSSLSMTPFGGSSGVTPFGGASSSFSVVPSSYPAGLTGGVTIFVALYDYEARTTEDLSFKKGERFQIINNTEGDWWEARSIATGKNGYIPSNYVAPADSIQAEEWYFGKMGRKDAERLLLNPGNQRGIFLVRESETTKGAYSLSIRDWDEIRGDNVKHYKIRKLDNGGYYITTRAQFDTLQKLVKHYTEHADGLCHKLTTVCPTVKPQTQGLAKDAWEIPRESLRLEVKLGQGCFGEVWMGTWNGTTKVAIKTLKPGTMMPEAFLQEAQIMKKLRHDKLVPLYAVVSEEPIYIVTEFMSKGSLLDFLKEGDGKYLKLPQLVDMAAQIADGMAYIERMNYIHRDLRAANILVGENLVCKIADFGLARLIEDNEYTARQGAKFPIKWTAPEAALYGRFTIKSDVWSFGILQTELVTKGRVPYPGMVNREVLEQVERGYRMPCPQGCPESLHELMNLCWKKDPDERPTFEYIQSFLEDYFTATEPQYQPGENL
row,First screening IR (inhibition rate),SMILES
1,48%,O=C(c1ccoc1)N1CCN(c2ncnc3cc(-c4ccc(F)cc4)sc23)CC1 [Compound Z373317194]
2,-5%,Cc1nnc(NC(=O)C2CC(c3cccc(F)c3)=NO2)s1 (stereo not drawn) [Compound Z381180216]
3,-12%,Cc1sc2nc(CN3CCC(C)CC3)nc(N3CCN(C(=O)c4ccccc4O)CC3)c2c1C [Compound Z381659312]
4,62%,CC(CCN1CCN(c2ccccc2)CC1)NC(=O)c1cc(-c2ccco2)nc2c1cnn2C(C)C (stereo not drawn) [Compound Z385234634]
5,12%,CC(=O)Nc1ccc(SCc2noc(-c3cccc(C)c3)n2)cc1 [Compound Z388276110]
6,6%,Cc1nc2cc(NC(=O)c3cc(C)n(-c4cccnc4)c3C)ccc2o1 [Compound Z395169542]
7,-16%,Cc1noc2ncc(C(=O)NCc3cccc(Cn4ccnc4)c3)cc12 [Compound Z395825976]
8,7%,COc1cc(CNC(=O)C2CCCN2C(C)=O)ccc1OCc1cccnc1 (stereo not drawn) [Compound Z396609184]
9,39%,Cc1cn2nc(NCc3ccc(N4CCNC(=O)C4)cc3)sc2n1 [Compound Z397897560]
10,36%,O=C(c1ccoc1)N1CCC(NCc2cn[nH]c2-c2ccc(F)cc2)CC1 [Compound Z401874244]
11,5%,CN(C)C(=O)c1ccc(Cl)c(NC(=O)N2CCc3ccccc3C2)c1 [Compound Z413336660]
12,-1%,COC(=O)c1cn(C)c(-c2ccc(NC(=O)c3ccc(CN4CCCCC4)cc3)cc2)c1C(=O)OC [Compound Z415024646]
13,3%,Cc1nn(C)c2sc(C(=O)NC3CCN(C(=O)C(C)(C)C)CC3)cc12 [Compound Z421731088]
14,7%,Cc1cc(C(=O)Nc2ccc(N3CCNC(=O)C3)c(Cl)c2)c2ccccc2n1 [Compound Z421986674]
15,6%,Cc1n[nH]c(C)c1/C=C/C(=O)c1ccc(N2CCCC2=O)cc1 [Compound Z424802904]
16,-6%,COc1cc2cc(C3CC(C4CC4)=NN3C(C)=O)c(Cl)nc2cc1OC (stereo not drawn) [Compound Z431511574]
17,44%,Cc1ccccc1-n1c(=O)c2ccccc2n2c(=S)n(CN3CCN(CCC(C)C)CC3)nc12 [Compound Z431773138]
18,12%,COc1cccc(OCCN2CCN(c3cc(C(C)(C)C)nc4c(-c5ccc(Cl)cc5)c(C)nn34)CC2)c1 [Compound Z431973470]

row,First screening IR (inhibition rate),SMILES
1,-1%,COc1cccc(OCCN2CCN(c3cc(C)nc4c(-c5ccc(F)cc5)c(C(F)(F)F)nn34)CC2)c1 [Compound Z432102126]
2,8%,C=CCn1c(=O)c2ccccc2n2c(SCC(=O)Nc3ccc(N4CCN(C)CC4)cn3)nnc12 [Compound Z432326346]
3,3%,COc1cccc(OCCN2CCN(c3cc(C)nc4c(-c5ccc(Cl)cc5)c(C)nn34)CC2)c1 [Compound Z435980234]
4,-1%,COc1cccc(OCCN2CCN(c3cc(C(C)(C)C)nc4c(-c5ccc(F)cc5)c(C)nn34)CC2)c1 [Compound Z439257332]
5,-6%,Cc1nn(C(C)(C)C)c2nc(C3CC3)cc(C(=O)NC(C)C)c12 [Compound Z441582602]
6,4%,Cn1ncc2c(N3CCN(CC[S+]([O-])c4cc(Cl)ccc4Cl)CC3)ncnc21 (stereo not drawn) [Compound Z445169626]
7,1%,CN(C)c1ccc(CNC(=O)N2CCN(C3=NS(=O)(=O)c4ccccc43)CC2)cc1 [Compound Z449089632]
8,45%,Cc1ccc2c(=O)c(C(=O)N(C)CC(=O)Nc3ccc(Cl)c(Cl)c3)c[nH]c2n1 [Compound Z454409356]
9,-3%,Cc1oc(C)c(S(N)(=O)=O)c1C(=O)N1CCN(Cc2c(F)cccc2Cl)CC1 [Compound Z466082788]
10,-16%,Cc1cc(CN(C)C(=O)NCc2ccc(N3CCCC3=O)cc2)no1 [Compound Z485637938]
11,9%,CCN(Cc1ccc(Cl)s1)C(=O)NCc1ccnc(N2CCN(C)CC2)c1 [Compound Z508129336]
12,1%,Cc1ncc2c(n1)CCN(C(=O)NCc1cc(-c3ccccc3)no1)C2 [Compound Z558380580]
13,-4%,CCCn1c(=O)c2ccccc2n2c(=S)n(CN3CCC(C(=O)Nc4cc(C)ccn4)CC3)nc12 [Compound Z573186768]
14,-5%,Cc1cccc(NC(=O)C2CCCN(c3nc(CN4CCOCC4)nc4sc(C)c(C)c34)C2)n1 (stereo not drawn) [Compound Z573238670]
15,2%,CN(c1ccc(NC(=O)N2CCN(C(=O)c3cccnc3)CC2)cc1F)C1CCCCC1 [Compound Z595406192]
16,7%,Cc1cc(Br)c(O)c(C(=O)NCCC(=O)N2CCOCC2)c1 [Compound Z596098802]
17,-12%,CC(C)c1nn(C)c(Cl)c1CNCc1ccc(N2CCOCC2)c(F)c1 [Compound Z635707390]

# The next lines start with the molecule.
row,SMILES,First screening IR (inhibition rate)
1,O=C1CN(c2nc(C(F)(F)F)nc3ccsc23)CCN1 [Compound Z370715174],26%
2,O=C(Nc1cccc2ncccc12)c1ccc(=O)n(-c2ccc(F)cc2)n1 [Compound Z370787214],43%
3,N#Cc1ccc(NC(=O)c2ccn(-c3ccc(F)cc3)n2)cc1 [Compound Z381174904],44%
4,Cc1ccc(-c2nc(N)sc2C)s1 [Compound Z381381388],-1%
5,COc1ccccc1C(=O)N=Nc1c(O)[nH]c2ccc(C)cc12 [Compound Z381428874],15%
6,NC(=O)Nc1ccc(NC(=O)Cc2csc(Cc3ccccc3)n2)cc1 [Compound Z383135670],-14%
7,O=C(Cc1csc(Cc2ccccc2)n1)Nc1cccc(Cn2ccnc2)c1 [Compound Z383523130],46%
8,O=C(Nc1cccc(COc2cccc(F)c2)c1)c1ccc(=O)[nH]n1 [Compound Z383786992],-2%
9,Cc1ccc(S(C)(=O)=O)cc1S(N)(=O)=O [Compound Z385450636],26%
10,FC(F)(F)c1ccnc(Nc2cn[nH]c2)n1 [Compound Z397745198],2%
11,O=C(CS(=O)(=O)CCCc1ccccc1)Nc1ccc(-n2ccnc2)nc1 [Compound Z407006622],-20%
12,c1ccc(-n2ncc3c2CCNC3)cc1 [Compound Z409420032],-11%
13,CC(CCc1ccc(O)cc1)NC(=O)Nc1ccc(NC(=O)c2ccco2)cc1 (stereo not drawn) [Compound Z412774176],-12%
14,O=C(NCCSCc1ccccc1)Nc1ccc(NC(=O)c2ccco2)cc1 [Compound Z412775020],44%
15,O=C(NCc1cccc(C(F)(F)F)c1)Nc1ccc(NC(=O)c2ccco2)cc1 [Compound Z412775872],-5%
16,N#Cc1ccc(-c2cc(-c3ccccc3)c3cc(Br)ccc3n2)cc1 [Compound Z415722772],-4%
17,N#Cc1ccc(-c2cc(-c3ccc(Cl)cc3)c3ccccc3n2)cc1 [Compound Z415722774],6%

row,SMILES,First screening IR (inhibition rate)
1,CCS(=O)(=O)Cc1cccc(S(=O)(=O)N(C)C)c1 [Compound Z416890194],-10%
2,O=C(Cc1csc(NC(=O)c2ccccc2F)n1)NCC1Cc2ccccc2O1 (stereo not drawn) [Compound Z420283836],-5%
3,O=C(NCc1ccnc(Oc2ccccc2)c1)c1ccc(OCc2cccnc2)cc1 [Compound Z424307182],-22%
4,Cc1ccc(NC(=O)c2ccc(N3CC(O)=C(c4nc5ccccc5s4)C3=N)cc2)c(O)c1 [Compound Z425227654],1%
5,O=C(CCc1ccc(-c2ccccc2F)o1)Nc1cccc(NC(=O)CCn2ccnc2)c1 [Compound Z431623528],5%
6,O=S1(=O)CCN(S(=O)(=O)Cl)CC1 [Compound Z432047124],0%
7,O=C(CCc1ccsc1)Nc1cc(C(F)(F)F)c[nH]c1=O [Compound Z432185696],4%
8,c1ccc(Cn2cccn2)c(CNc2cncc(-n3cccn3)n2)c1 [Compound Z432289626],41%
9,CN(C)S(=O)(=O)c1cccc(CS(=O)(=O)c2ccccn2)c1 [Compound Z432528000],4%
10,Cc1ccc(Oc2ccc(NC(=O)N3CCNC(=O)C3)cn2)cc1 [Compound Z435639920],-14%
11,CC(C)c1noc(C(C)S(=O)(=O)C/C=C/c2ccccc2)n1 (stereo not drawn) [Compound Z436400008],6%
12,COc1ccc(CNCc2cn[nH]c2-c2ccc(C)o2)cn1 [Compound Z446209214],-2%
13,CS(=O)(=O)CS(=O)(=O)C(F)(F)F [Compound Z540725378],-4%
14,O=C(Nc1cc(N2CCCS2(=O)=O)ccc1O)c1cccc(C(F)(F)F)c1 [Compound Z573928840],-18%
15,N#CC(C(=O)CCc1ccc(F)cc1)c1nc2cc(Cl)ccc2c(=O)[nH]1 (stereo not drawn) [Compound Z594627070],1%
16,O=C(CCNC(=O)c1cccs1)Nc1ccc2nc(-c3cccc(F)c3)[nH]c2c1 [Compound Z594945904],-4%
17,COc1ccc(NC(=O)C(=O)c2c(C)nn(-c3ccccc3)c2C)cc1OCc1cn2ccccc2n1 [Compound Z605682156],-5%

# Same assay, conditions: second screening, dissolved from fresh powder; n = 4; 10 μmol L−1 compound
row,Second screening IR (inhibition rate),SMILES
1,1%,CC(CCN1CCN(c2ccccc2)CC1)NC(=O)c1cc(-c2ccco2)nc2c1cnn2C(C)C (stereo not drawn) [Compound Z385234634]
2,-16%,O=C(NCCSCc1ccccc1)Nc1ccc(NC(=O)c2ccco2)cc1 [Compound Z412775020]
3,18%,c1ccc(Cn2cccn2)c(CNc2cncc(-n3cccn3)n2)c1 [Compound Z432289626]
